One compound from ChEMBL document CHEMBL5346899, “PKM2/PDK1 dual-targeted shikonin derivatives restore the sensitivity of EGFR-mutated NSCLC cells to gefitinib by remodeling glucose metabolism” (Eur J Med Chem, 2023) can be followed below.

For assay [1], the system named is NCI-H1299. Description: Synergistic antiproliferative activity against human NCI-H1299 cells assessed as cell growth inhibition at 500 micromol/L incubated for 24 hrs in presence of AZD7545 by CCK-8 analysis. It counts as functional, cell-based. The conditions noted are these: dose 500.0 µmol/L.
The subject of assay [2] is NCI-H1299. Briefly: Induction of apoptosis in human NCI-H1299 cells assessed as live cells at 500 micromol/L incubated for 24 hrs by Annexin V-FITC/PI staining based analysis (reference value: 96.6%). The conditions noted are these: dose 500 µmol/L, at 500 µM. It counts as functional.
Assay [3] has as its system NCI-H1299. Briefly: Induction of apoptosis in human NCI-H1299 cells assessed as early apoptotic cells at 500 micromol/L incubated for 24 hrs by Annexin V-FITC/PI staining based analysis (reference value: 0.772%). It counts as functional. Conditions: dose 500 µmol/L, at 500 µM.
The test system of assay [4] is NCI-H1299. Briefly: Induction of apoptosis in human NCI-H1299 cells assessed as late apoptotic cells at 500 micromol/L incubated for 24 hrs by Annexin V-FITC/PI staining based analysis (reference value: 2.63%). It counts as functional. The conditions noted are these: dose 500 µmol/L, at 500 µM.
The subject of assay [5] is NCI-H1299. Briefly: Induction of apoptosis in human NCI-H1299 cells assessed as dead cells at 500 micromol/L incubated for 24 hrs by Annexin V-FITC/PI staining based analysis (reference value: 0.021%). The conditions noted are these: dose 500 µmol/L, at 500 µM. It counts as functional.
Assay [6] has as its system NCI-H1299. Description: Induction of apoptosis in human NCI-H1299 cells assessed as live cells at 500 micromol/L incubated for 24 hrs in presence of AZD7545 by Annexin V-FITC/PI staining based analysis (reference value: 96.6%). It counts as functional. The conditions noted are these: dose 500 µmol/L, at 500 µM.
Assay [7] relates to NCI-H1299. Briefly: Induction of apoptosis in human NCI-H1299 cells assessed as early apoptotic cells at 500 micromol/L incubated for 24 hrs in presence of AZD7545 by Annexin V-FITC/PI staining based analysis (reference value: 0.772%). The class given is functional. The conditions noted are these: dose 500 µmol/L, at 500 µM.
Assay [8] has as its system NCI-H1299. Description: Induction of apoptosis in human NCI-H1299 cells assessed as late apoptotic cells at 500 micromol/L incubated for 24 hrs in presence of AZD7545 by Annexin V-FITC/PI staining based analysis (reference value: 2.63%). The class given is functional. Conditions: dose 500 µmol/L, at 500 µM.
The test system of assay [9] is NCI-H1299. Description: Induction of apoptosis in human NCI-H1299 cells assessed as dead cells at 500 micromol/L incubated for 24 hrs in presence of AZD7545 by Annexin V-FITC/PI staining based analysis (reference value: 0.021%). The class given is functional. The conditions noted are these: dose 500 µmol/L, at 500 µM.
Assay [10] concerns NCI-H1299. Description: Inhibition of glycolysis in human NCI-H1299 cells assessed as reduction in glucose consumption incubated for 24 hrs in presence of AZD7545 by colorimetric assay. The class given is functional, cell-based.
Assay [11] has as its system NCI-H1299. Description: Inhibition of glycolysis in human NCI-H1299 cells assessed as reduction in lactate production incubated for 1 hrs in presence of AZD7545 by colorimetric assay. The class given is functional, cell-based.
Assay [12] relates to NCI-H1299. Description: Synergistic inhibition of NADPH production in human NCI-H1299 cells incubated for 2 hrs in presence of AZD7545 by NADP+/NADPH assay. It counts as functional, cell-based.
Assay [13] deals with NCI-H1299. Description: Synergistic induction of oxidative phosphorylation in human NCI-H1299 cells assessed as increase in ATP production in presence of AZD7545 by luminescence based assay. It counts as functional, cell-based.
For assay [14], the system named is NCI-H1299. Description: Antitumor activity against human NCI-H1299 cells xenografted in mouse assessed as pathological damage to tumor tissue administered in presence of AZD7545. It counts as functional.

Calls of active or inactive are those of the source. No cut-off for these calls is given here.

`Cn1c2cc([S+](C)[O-])sc2c2cnn(Cc3cccc(N)c3)c(=O)c21` (centres undefined): the outcome in the assay on NCI-H1299 [1], in the assay with NCI-H1299 [13] and in the assay with NCI-H1299 [14] was Active. Also, the Activity in the assay with NCI-H1299 [2] was determined as 97%; in the assay on NCI-H1299 [3] it was 0.923%; in the assay on NCI-H1299 [4], 2.11%; in the assay with NCI-H1299 [5], 0%; in the assay with NCI-H1299 [6], 20.6%; in the assay with NCI-H1299 [7] it was 7.63%. Also, the Activity with NCI-H1299 [8] was 71.7%; with NCI-H1299 [9] it was 0%. The inhibition entry in the assay on NCI-H1299 [10], with NCI-H1299 [11] and with NCI-H1299 [12] was “Active” throughout.
